{
  "source": "patent US20240165094A1",
  "about": "“METHODS AND COMPOSITIONS FOR TREATING MELANOMA” (INSTITUT NATIONAL DE LA SANTÉ ET DE LA RECHERCHE MÉDICALE, priority 2021, published 2024)",
  "key": {"M238R cells [1]": {"system": "M238R cells", "assay": "Viability assay (crystal violet staining of attached cells), BRAFi-resistant cells", "type": "cell-based, human", "conditions": "3 days", "procedure": "FIG. 1. Nintedanib sensitizes melanoma cells to BRAFi/MEKi therapy and prevents BRAFi/MEKi-driven ECM remodeling. (A) BRAFi-resistant M238R cells were treated with vehicle (Ctrl), Nintedanib (2 μM), Vemurafenib and Trametinib (BRAFi/MEKi, 5 μM) or Vemurafenib/Trametinib (5 μM) plus Nintedanib (2 μM) for 3 days. Cell viability was assessed by crystal violet staining of attached cells. (B) BRAFi-sensitive parental M238P cells were treated with vehicle (Ctrl), Nintedanib (2 μM) Vemurafenib and Trametinib (BRAFi/MEKi, 1 μM) or Vemurafenib/Trametinib (1 μM) plus Nintedanib (2 μM) for 3 days. Cell viability was assessed by crystal violet staining of attached cells. Paired Student t-test has been used for statistical analysis. ****P≤0.0001. Data is represented as mean ±SE from a triplicate representative of at least 3 independent experiments.\nThe isogenic pair of Vemurafenib-sensitive and -resistant human BRAF-mutated melanoma cells M238 was provided by R. Lo (Nazarian et al., 2010). YUMM1.7 mouse melanoma cells were a kind gift from M. Bosenberg (Meeth et al., 2016). […]\nAfter the indicated treatments, cells were stained with 0.04% crystal violet, 20% ethanol in PBS for 30 min. […] The crystal violet dye is solubilized by 10% acetic acid in PBS and measured by absorbance at 595 nm."}, "M238P cells": {"system": "M238P cells", "assay": "Viability assay (crystal violet staining of attached cells), BRAFi-sensitive parental cells", "type": "cell-based, human", "conditions": "3 days", "quoted_text": "Melanoma cells were cultured in Dulbecco's modified Eagle medium (DMEM) supplemented with 7% FBS (Hyclone) and 1% penicillin/streptomycin. Resistant cells were continuously exposed to 1 μM of Vemurafenib. […] BRAFi (PLX4032, Vemurafenib), MEKi (GSK1120212, Trametinib) and Nintedanib (BIBF1120) were from Selleckem."}, "M238R cells [2]": {"system": "M238R cells", "assay": "Real-time quantitative PCR gene expression in BRAFi-resistant cells", "type": "cell-based, human", "conditions": "data not shown", "procedure": "(§1) Total RNA was extracted from tumors and cell samples with the miRNeasy Mini Kit (Qiagen) according to the manufacturer's instructions.\n(§2) 1 μg of extracted RNA from cells was reverse transcribed into cDNA using the Multiscribe reverse transcriptase kit provided by Applied Biosystems. Primers were designed using PrimerBank or adopted from published studies. Gene expression levels were measured using Platinum SYBR Green qPCR Supermix (Fisher Scientific) and Step One thermocycler (Applied Biosystem). Results from qPCR were normalized using the reference gene RPL32 and relative gene expression was quantified with the ΔΔCt method. Heatmaps describing gene expression fold changes were prepared using MeV software. cDNAs from tumors were prepared from 100 ng of RNA using Fluidigm Reverse Transcription Master Mix (Fluidigm PN 100-647297). Following a pre-amplification step (Fluidigm® PreAmp Master Mix and DELTAgene™ Assay kits) and exonuclease I treatment, samples diluted in Eva-Green® Supermix with Low ROX were loaded with primer reaction mixes in 96.96 Dynamic Array™ IFCs. Gene expression was then assessed on a Fluidigm BioMark HD instrument. Data were analyzed with real-time PCR analysis software (Fluidigm Corporation), and presented as relative gene expression according to the ΔΔCt method. Heat maps depicting fold changes of gene expression were prepared using MeV software."}, "M238P melanoma cells": {"system": "M238P melanoma cells", "assay": "Real-time quantitative PCR gene expression in BRAFi-sensitive cells", "type": "cell-based, human", "conditions": "data not shown", "procedure": "as §1, §2"}, "[3]": {"system": "YUMM1.7 Braf-mutant melanoma", "assay": "Syngenic model of murine YUMM1.7 Braf-mutant melanoma: tumor growth, relapse, survival", "type": "in vivo, mouse", "excerpt": "FIG. 2. Nintedanib enhances MAPK-targeted therapy efficacy, delays tumor relapse, improves mice survival and normalizes the pro-fibrotic stromal reaction. Kaplan-Meier survival curves of mice treated with vehicle, Nintedanib, MAPK-targeted therapy (BRAFi+MEKi) or MAPK-targeted therapy plus Nintedanib. Log rank (Mantel-Cox) statistical test was used for MAPK-targeted therapy vs MAPK targeted therapy/Nintedanib. ****p<0.0001.\nFIG. 4. Nintedanib, but not Pirfenidone, enhances MAPK-targeted therapy efficacy and delays tumor relapse. Mouse YUMM1.7 cells were injected s.c. into syngeneic C57BL/6 mice. When tumor volume reached 100 mm3, mice were administered vehicle, BRAFi+MEKi combination, Nintedanib, Pirfenidone or the triple combinations of BRAFi+MEKi and Nintedanib or BRAFi+MEKi and Pirfenidone. Representative median graphics show tumor growth following treatment (n=3 mice per group). Treatment: Oral gavage 3 times per week. Vemurafenib (BRAFi): 30 mg/kg; Trametinib (MEKi): 0.3 mg/kg; Nintedanib: 50 mg/kg; Pirfenidone: 100 mg/kg. Oral gavage 3 times per week.\nMouse experiments were carried out according to the Institutional Animal Care and the local ethical committee. 4×105 YUMNI1.7 cells were injected in both flanks of C57BL/6 mice. Tumors were measured with caliper and treatments were started when the tumors reached a volume of 0.1 cm3, after randomization of mice into control and test groups. Vemurafenib (30 mg/kg), Trametinib (0.3 mg/kg), and Nintedanib (50 mg/kg) were administered by oral gavage three times per week. Control mice were treated with vehicle only. Animals were sacrificed when the tumors reached a volume of 1 cm3. After animal sacrifice, tumors were dissected, weighed and snap-frozen in liquid nitrogen for RNA or protein extraction and immunofluorescence analysis (embedded in OCT from Tissue-Tek). Tumors for picrosirius red staining were fixed in formalin."}, "YUMM 1.7 tumors": {"system": "YUMM 1.7 tumors", "assay": "ECM remodeling in YUMM1.7 tumors (picrosirius red collagen staining, qPCR of ECM, myofibroblast and pro-fibrotic markers)", "type": "in vivo, mouse", "conditions": "co-administration of Nintedanib with MAPKi; data not shown", "procedure": "as §2, with “Heatmaps describing gene expression fold changes were prepared using MeV software. cDNAs from tumors were prepared from 100 ng of RNA using Fluidigm Reverse Transcription Master Mix (Fluidigm PN 100-647297).” left out, “[…])” for “DELTAgene™ Assay kits)”, “ArrayTM” for “Array™”, “software. Collagen in paraffin-embedded tumors was stained with picrosirius red using standard protocols as described (Girard et al., 2020). Tumor sections were analyzed by polarized light microscopy. Images were acquired under polarized illumination using a light transmission microscope (Zeiss PALM, at 10× magnification). […]” for “software.”"}},
  "data": [
    {"smiles": "COC(=O)c1ccc2c(c1)NC(=O)/C2=C(\\Nc1ccc(N(C)C(=O)CN2CCN(C)CC2)cc1)c1ccccc1", "note": "[Nintedanib]", "values": [
      {"measurement": "cell survival (viability)", "setting": "M238R cells [1]; BRAFi-resistant M238R cells, Nintedanib alone (2 μM)", "result": "no effect"},
      {"measurement": "sensitivity to BRAF and MEK co-inhibition (cell viability)", "setting": "M238R cells [1]; M238R cells, Nintedanib 2 μM plus Vemurafenib/Trametinib 5 μM", "result": "restored sensitivity"},
      {"measurement": "cell survival (viability)", "setting": "M238P cells; BRAFi-sensitive M238P cells, Nintedanib alone (2 μM)", "result": "no effect"},
      {"measurement": "effect on the inhibitory effect of BRAFi plus MEKi on cell viability", "setting": "M238P cells; M238P cells, Nintedanib 2 μM plus Vemurafenib/Trametinib 1 μM", "result": "potentiated significantly the inhibitory effect"},
      {"measurement": "ECM and fibrotic-like signature", "setting": "M238R cells [2]; Nintedanib at two different doses", "result": "reverted"},
      {"measurement": "PDL1 expression", "setting": "M238R cells [2]", "result": "reduced"},
      {"measurement": "BRAFi-induced ECM-related signature and myofibroblast markers such as ACTA2, MYL9 and LOXL2", "setting": "M238P melanoma cells", "result": "strongly attenuated"},
      {"measurement": "differentiation marker MITF expression", "setting": "M238P melanoma cells; under BRAFi", "result": "prevented the downregulation"},
      {"measurement": "gene expression of phenotypic markers such as PDL1 and NGFR", "setting": "M238P melanoma cells; under BRAFi", "result": "reduced"},
      {"measurement": "effect on MAPK-targeted therapy efficacy and tumor relapse", "setting": "[3]; BRAFi/MEKi-treated YUMM1.7 melanoma, n=3, Nintedanib 50 mg/kg or Pirfenidone 100 mg/kg added to Vemurafenib 30 mg/kg + Trametinib 0.3 mg/kg", "result": "enhances MAPK-targeted therapy efficacy and prevents tumor relapse"},
      {"measurement": "anti-melanoma effect", "setting": "[3]; YUMM1.7 s.c. in C57BL/6 mice, Nintedanib 50 mg/kg alone, oral gavage three times per week", "result": "did not display any anti-melanoma effect"},
      {"measurement": "tumor growth", "setting": "[3]; YUMM1.7 s.c. in C57BL/6 mice, oral gavage three times per week", "result": "slightly slowing down tumor growth but not triggering tumor volume decrease"},
      {"measurement": "MAPKi-induced ECM remodeling responses in tumors", "setting": "YUMM 1.7 tumors", "result": "suppressed"}
    ]}
  ]
}
